Laboratory results from patent US20150011566A1, “N-PHENYLPIPERAZINE DERIVATIVES THAT ARE ANTAGONISTS OF A1A, A1D ADRENOCEPTORS AND 5-HT1A RECEPTORS FOR THE TREATMENT OF BENIGN PROSTATE HYPERPLASIA, PHARMACEUTICAL COMPOSITIONS CONTAINING THE SAME” (UNIVERSIDADE FEDERAL DO RIO DE JANEIRO-UFRJ, priority 2012, published 2015).
Read-outs that look alike come from different tables or passages of the source. Marks after values point to notes of the source that are not given here.

How the values were obtained:
α2A receptors = molecular target: T1, α2A receptors (Rattus norvegicus, UniProt P22909); experiment: Binding of [3H]RX821002 to α2A receptors (rat cortex membranes)
T1 construct: from tissue; host or cells: rat cortex membranes
T1 sequence (P22909 1-465): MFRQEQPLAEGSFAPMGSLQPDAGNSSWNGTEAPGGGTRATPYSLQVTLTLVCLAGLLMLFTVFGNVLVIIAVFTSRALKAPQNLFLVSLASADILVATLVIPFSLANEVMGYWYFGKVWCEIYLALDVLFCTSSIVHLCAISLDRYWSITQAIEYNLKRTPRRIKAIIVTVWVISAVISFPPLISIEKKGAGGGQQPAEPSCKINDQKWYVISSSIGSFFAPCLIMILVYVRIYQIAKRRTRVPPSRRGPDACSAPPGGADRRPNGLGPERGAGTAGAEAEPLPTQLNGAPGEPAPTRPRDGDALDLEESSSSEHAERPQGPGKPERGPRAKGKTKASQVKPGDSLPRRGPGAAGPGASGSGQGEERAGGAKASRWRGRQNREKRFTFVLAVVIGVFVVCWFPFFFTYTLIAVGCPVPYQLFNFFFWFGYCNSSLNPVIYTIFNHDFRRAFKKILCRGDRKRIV
Procedure: Membrane preparations of rat cortex as described previously in the literature were performed. The organs were homogenized in a Potter with the aid of a motor unit (Fisatom) and Teflon piston in the proportion of 20 parts of 50 mM Tris HCl (pH 7.4 at 4° C.) for one piece of material, three times for 30 seconds each time, at intervals the solution was allowed to stand on ice for 1 minute.
Then it was performed a centrifugation at 900×g for 10 minutes at 4° C. It was obtained a […] which was resuspended in solution cold 50 mM Tris-HCl (pH 7.4) and the same procedure was performed once more. The supernatant was then centrifuged at 48,000×g for 10 minutes at 4° C. yielding a pellet which was resuspended at a ratio of 20 parts of 50 mM Tris HCl (pH 7.4 at 4° C.) for one piece of material, and incubated at 37° C. for 10 minutes in order to remove the endogenous neurotransmitters. Finally, centrifugation two times more at 48,000×g was performed for 10 minutes at 4° C., and then the final pellet was resuspended in a solution of 50 mM Tris-HCl (pH 7.4).
Binding assays for the α2A receptor were performed as described previously in the literature and previously standardized in the laboratory by saturation experiments. […] Incubate for 60 minutes at 30° C., 150 membrane preparation of rat cortex contained 50 μL was suspended in 50 mM Tris-HCl into tubes containing 400 μL intermediate solution ([3H] RX821002 1.25 nM, 50 mM Tris (pH 7.4 at 37° C.) and 50 μL of different concentrations of LDT's (final concentration 10^−7-3×10^−5 M to LDT65-68) or 50 μL of 50 mM Tris-HCl pH 7.4 at 37° C. (solvent for dilution of the LDT's), to determine the total binding or 50 μL nonradioactive bitartrate adrenaline at 100 μM for determining the non-specific bounding (final volume 500 μL). Assays were performed in triplicate.
After the incubation period, the reaction was stopped by adding 4 mL ice cold solution containing 5 mM Tris (pH 7.4), followed by vacuum filtration on glass fiber filter (GMF 3, Filtrak®) previously soaked with solution 0.5% polyethylenoimine. The filters were washed three times with 4 mL of ice-cold solution containing 5 mM Tris (pH 7.4) under vacuum to remove all free radioligand. Then the filters were dried and placed in vials containing 5 ml scintillation fluid (composition: 4% PPO, 0.1% POPOP w/v in toluene). The radioactivity retained on the filters was then determined in a liquid scintillation counter (Packard Tri-Carb 1600 TR). Specific binding of [3H]RX821002 to a2A receptors was defined as the difference between total binding and non-specific binding. To these receptors were determined and IC50 and Ki parameters.

D2-Like receptors = D2-Like receptors (Rattus norvegicus, UniProt P61169); experiment: D2-like receptors binding assay, [3H]-YM 09151-2 (rat striatal membranes); conditions: Table 15; for Ki: Cheng-Prusoff
Procedure: Briefly, organs were homogenized for 30 seconds three times in Fisatom in 50 mM Tris-HCl, MgCl2 8 mM, 5 mM EDTA (pH 7.4 at 4° C.) and then centrifuged at 48,000×gav (20 minutes 4° C.). The pellet was resuspended in 50 mM Tris-HCl, 8 mM MgCl2, 5 mM EDTA (pH 7.4 at 37° C.), incubated at 37° C. for 10 minutes and centrifuged twice more. The final pellet was resuspended in the same buffer at a concentration of 1.5 mL/g tissue.
Non-specific binding was measured in the presence of 30 μM sulpiride. Assays were performed in triplicate.
The radioactivity retained on the filters was then determined in a liquid scintillation counter (Packard Tri-Carb 1600 TR). For these receptors were also determined IC50 and Ki parameters.

α1D receptors = molecular target: T2, α1D receptors (Homo sapiens, UniProt P25100); experiment: Cell proliferation in vitro, DU-145 cells stimulated with phenylephrine (MTT); assay type: cell-based; conditions: for Proliferation percentage in relation to basel (100%) in the presence of LDT's, α1D: 48 h; for inhibition of the effect of the α1D receptors stimulus on proliferation: LDT3 50 nM, LDT66 20 nM
T2 construct: endogenous in cells; host or cells: DU-145
T2 sequence (P25100 1-572): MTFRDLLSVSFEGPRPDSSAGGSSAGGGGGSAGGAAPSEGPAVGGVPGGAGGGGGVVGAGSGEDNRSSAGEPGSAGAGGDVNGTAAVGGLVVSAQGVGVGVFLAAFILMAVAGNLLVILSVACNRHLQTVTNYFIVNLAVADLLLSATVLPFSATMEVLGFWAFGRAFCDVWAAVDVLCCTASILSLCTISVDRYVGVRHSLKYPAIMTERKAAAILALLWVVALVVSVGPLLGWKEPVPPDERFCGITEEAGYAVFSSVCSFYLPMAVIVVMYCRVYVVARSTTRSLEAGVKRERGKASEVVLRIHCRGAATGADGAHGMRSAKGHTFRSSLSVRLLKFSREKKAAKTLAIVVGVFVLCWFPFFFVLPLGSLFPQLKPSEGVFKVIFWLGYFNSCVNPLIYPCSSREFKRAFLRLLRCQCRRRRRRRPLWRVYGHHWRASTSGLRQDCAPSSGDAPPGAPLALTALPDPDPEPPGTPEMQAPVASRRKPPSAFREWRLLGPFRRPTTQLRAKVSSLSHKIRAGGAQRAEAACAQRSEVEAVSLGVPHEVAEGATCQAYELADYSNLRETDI
Procedure: Human prostate cancer cells (DU-145) were cultured in medium (RPMI 1640) until confluence. Then the cells were dissociated, plated (5×10^3 cells/well) and maintained in medium free of fetal bovine serum for 24 hours. […] Cell proliferation was assessed by using the MTT technique (MOSMANN, T. Immunol Methods. 16; 65 (1-2):55-63, 1983).

[1] = Table 6, Cheng-Prusoff, read-out: Ki
[2] = DU-145, phenylephrine 3 μM + test substance 50 nM
[3] = Table 12, Cheng-Prusoff, read-out: Ki
[4] = Table 12, read-out: -log IC50 (converted)

Chain of D2-Like receptors (P61169 whole entry): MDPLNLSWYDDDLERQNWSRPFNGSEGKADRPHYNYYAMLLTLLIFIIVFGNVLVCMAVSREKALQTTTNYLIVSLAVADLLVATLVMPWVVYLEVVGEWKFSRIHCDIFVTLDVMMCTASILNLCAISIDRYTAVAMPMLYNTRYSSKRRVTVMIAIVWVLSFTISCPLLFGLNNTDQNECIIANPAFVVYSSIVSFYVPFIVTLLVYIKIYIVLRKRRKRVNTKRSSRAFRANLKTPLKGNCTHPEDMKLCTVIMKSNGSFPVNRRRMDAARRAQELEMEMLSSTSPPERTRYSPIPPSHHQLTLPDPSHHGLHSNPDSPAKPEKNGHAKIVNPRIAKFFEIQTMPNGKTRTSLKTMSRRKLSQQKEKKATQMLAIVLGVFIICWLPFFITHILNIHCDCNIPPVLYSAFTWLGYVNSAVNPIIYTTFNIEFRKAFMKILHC

Compound CCCCCN1CCN(c2ccccc2OC)CC1 [LDT 65] has an IC50 (α2A receptors) of 2510 nM and a Ki (α2A receptors) of 1500 nM.
For CCCCCCN1CCN(c2ccccc2OC)CC1 [LDT 66], the “log IC50 (M)” value (α2A receptors; Table 6) was −5.92 ± 0.06 M, the Ki (α2A receptors; [1]) was 800 nM and the “-log IC50 (M)” value (D2-Like receptors) was 6.92 ± 0.11 M. The Ki (D2-Like receptors) was 40 nM, the “Proliferation percentage in relation to basel (100%) in the presence of LDT's, α1D” value (α1D receptors; [2]) was 76 ± 7.7^a % and the “inhibition of the effect of the α1D receptors stimulus on proliferation” value (α1D receptors) was “inhibited the effect”.
For COc1cccc(CCN2CCN(c3ccccc3OC)CC2)c1 [LDT 3], the Ki (α2A receptors; [3]) was 930 nM, the IC50 (α2A receptors; [4]) was 1100 nM and the “Proliferation percentage in relation to basel (100%) in the presence of LDT's, α1D” value (α1D receptors; DU-145, phenylephrine 3 μM + test substance 500 nM) was 99.2 ± 5.8^a %. For the same compound, the “inhibition of the effect of the α1D receptors stimulus on proliferation” value (α1D receptors) was “inhibited the effect”.
CCOc1ccccc1N1CCN(CCc2ccc(OC)c(OC)c2)CC1 [LDT 245] gave an IC50 (α2A receptors) of 2000 nM and a Ki (α2A receptors) of 160 nM.
For CCCCCCCCN1CCN(c2ccccc2OC)CC1 [LDT 68], the “log IC50 (M)” value (α2A receptors; Table 6) was −6.01 ± 0.03 M, the Ki (α2A receptors; [1]) was 600 nM and the “-log IC50 (M)” value (D2-Like receptors) was 7.49 ± 0.09 M. The Ki (D2-Like receptors) was 9 nM.
With COc1ccc(CCN2CCN(c3ccccc3OC)CC2)cc1OC [LDT 5] the IC50 (α2A receptors) was 295 nM, the Ki (α2A receptors) was 240 nM and the Ki (D2-Like receptors) was 100 nM. For the same compound, the “Proliferation percentage in relation to basel (100%) in the presence of LDT's, α1D” value (α1D receptors; [2]) was 117.3 ± 8.9%.
For CCCCCCCN1CCN(c2ccccc2OC)CC1 [LDT 67], the “log IC50 (M)” value (α2A receptors; Table 6) was −6.10 ± 0.06 M, the Ki (α2A receptors; [1]) was 500 nM and the “-log IC50 (M)” value (D2-Like receptors) was 7.47 ± 0.07 M. It also gave a Ki (D2-Like receptors) of 9 nM.
In the case of CCOc1ccccc1N1CCN(CCc2ccc3c(c2)OCO3)CC1 [LDT 8], the Ki (α2A receptors; [3]) is reported as 550 nM, the IC50 (α2A receptors; [4]) is reported as 603 nM and the “Proliferation percentage in relation to basel (100%) in the presence of LDT's, α1D” value (α1D receptors; DU-145, phenylephrine 3 μM + test substance 5 nM) is reported as 124.05 ± 9.6%.
